According to patent US20070099890A1, “Novel cephalosporin derivatives, its pharmaceutically acceptable salts and manufacturing process thereof” (priority 2003, published 2007):
≈ marks a conversion by molar mass, not a printed value. Read-outs that look alike come from different tables or passages of the source.

Experiments:
Assay in all cases: In vitro antibacterial activity test (2-fold agar dilution MIC)
Type in all cases: cell-based
Conditions in all cases: for MIC: read-out: Minimum inhibitory concentrations (MICs)
[1] = test system: Staphylococcus aureus 007 (MRSA)
Protocol: (§1) The in vitro antibacterial activity of the compounds prepared in the Examples of the invention was determined as follows: after incubation of the corresponding bacterium for 18 h at 37° C., minimum inhibitory concentrations (MICs, μg/mL) were determined by the 2-fold agar dilution method with Mueller-Hinton Agar.

[2] = test system: Staphylococcus aureus 001 (MRSA)
Protocol: as §1

[3] = test system: Staphylococcus aureus 009 (MRSA)
Protocol: as §1

[4] = test system: Staphylococcus aureus 008 (MRSA)
Protocol: as §1

[5] = test system: Staphylococcus aureus 005 (MRSA)
Protocol: as §1

[6] = test system: Staphylococcus aureus 003 (MRSA)
Protocol: as §1

[7] = test system: Staphylococcus aureus 006 (MRSA)
Protocol: as §1

[8] = test system: Staphylococcus aureus 002 (MRSA)
Protocol: as §1

[9] = test system: Staphylococcus aureus 004 (MRSA)
Protocol: as §1

[10] = test system: Staphylococcus aureus 010 (MRSA)
Protocol: as §1

[11] = MRSA Staphylococcus aureus 007, 2-fold agar dilution, Mueller-Hinton Agar, 18 h at 37° C.
[12] = MRSA Staphylococcus aureus 001, 2-fold agar dilution, Mueller-Hinton Agar, 18 h at 37° C.
[13] = MRSA Staphylococcus aureus 009, 2-fold agar dilution, Mueller-Hinton Agar, 18 h at 37° C.
[14] = MRSA Staphylococcus aureus 008, 2-fold agar dilution, Mueller-Hinton Agar, 18 h at 37° C.
[15] = MRSA Staphylococcus aureus 005, 2-fold agar dilution, Mueller-Hinton Agar, 18 h at 37° C.
[16] = MRSA Staphylococcus aureus 003, 2-fold agar dilution, Mueller-Hinton Agar, 18 h at 37° C.
[17] = MRSA Staphylococcus aureus 006, 2-fold agar dilution, Mueller-Hinton Agar, 18 h at 37° C.
[18] = MRSA Staphylococcus aureus 002, 2-fold agar dilution, Mueller-Hinton Agar, 18 h at 37° C.
[19] = MRSA Staphylococcus aureus 004, 2-fold agar dilution, Mueller-Hinton Agar, 18 h at 37° C.
[20] = MRSA Staphylococcus aureus 010, 2-fold agar dilution, Mueller-Hinton Agar, 18 h at 37° C.
[21] = Staphylococcus aureus, MRSA, 18 h

O=C(CSc1ccccc1)N[C@@H]1C(=O)N2C(C(=O)O)=C(C=Cc3cc(-c4ccc(Br)cc4)no3)CS[C@H]12 [Compound 30]
Minimum inhibitory concentrations (MICs) [1, 11]: <0.002 µg/mL | Minimum inhibitory concentrations (MICs) [2, 12]: 3.125 µg/mL (≈ 5.22 µM) | Minimum inhibitory concentrations (MICs) [3, 13]: 0.195 µg/mL (≈ 0.326 µM) | Minimum inhibitory concentrations (MICs) [4, 14]: 0.195 µg/mL (≈ 0.326 µM) | Minimum inhibitory concentrations (MICs) [5, 15]: 0.098 µg/mL (≈ 0.164 µM) | Minimum inhibitory concentrations (MICs) [6, 16]: 6.250 µg/mL (≈ 10.4 µM) | Minimum inhibitory concentrations (MICs) [7, 17]: 0.004 µg/mL (≈ 0.00668 µM) | Minimum inhibitory concentrations (MICs) [8, 18]: 0.002 µg/mL (≈ 0.00334 µM) | Minimum inhibitory concentrations (MICs) [9, 19]: 3.125 µg/mL (≈ 5.22 µM) | Minimum inhibitory concentrations (MICs) [10, 20]: 0.195 µg/mL (≈ 0.326 µM)

CO/N=C(\C(=O)N[C@@H]1C(=O)N2C(C(=O)O)=C(COC(C)=O)CS[C@H]12)c1csc(N)n1 [cefotaxime]
MIC [1, 11]: 1.56 µg/mL (≈ 3.43 µM) | MIC [2, 12]: 25 µg/mL (≈ 54.9 µM) | MIC [3, 13]: 6.25 µg/mL (≈ 13.7 µM) | MIC [4, 14]: 1.56 µg/mL (≈ 3.43 µM) | MIC [5, 15]: 6.25 µg/mL (≈ 13.7 µM) | MIC [6, 16]: > 100 µg/mL | MIC [7, 17]: 1.56 µg/mL (≈ 3.43 µM) | MIC [8, 18]: 3.12 µg/mL (≈ 6.86 µM) | MIC [9, 19]: > 10 µg/mL | MIC [10, 20]: 6.25 µg/mL (≈ 13.7 µM)

CN[C@H](CC(C)C)C(=O)N[C@H]1C(=O)N[C@@H](CC(N)=O)C(=O)N[C@H]2C(=O)N[C@H]3C(=O)N[C@H](C(=O)N[C@H](C(=O)O)c4cc(O)cc(O)c4-c4cc3ccc4O)[C@H](O)c3ccc(c(Cl)c3)Oc3cc2cc(c3O[C@@H]2O[C@H](CO)[C@@H](O)[C@H](O)[C@H]2O[C@H]2C[C@](C)(N)[C@H](O)[C@H](C)O2)Oc2ccc(cc2Cl)[C@H]1O [vancomycin]
MIC [1, 21]: 0.781 µg/mL (≈ 0.539 µM) | MIC [2, 21]: 3.12 µg/mL (≈ 2.16 µM) | MIC [3, 21]: 0.781 µg/mL (≈ 0.539 µM) | MIC [4, 21]: 0.781 µg/mL (≈ 0.539 µM) | MIC [5, 21]: 0.781 µg/mL (≈ 0.539 µM) | MIC [6, 21]: 0.781 µg/mL (≈ 0.539 µM) | MIC [7, 21]: 0.781 µg/mL (≈ 0.539 µM) | MIC [8, 21]: 1.56 µg/mL (≈ 1.08 µM) | MIC [9, 21]: 0.781 µg/mL (≈ 0.539 µM) | MIC [10, 21]: 0.781 µg/mL (≈ 0.539 µM)
